In patent publication US20070208073A1, “Compositions and methods for treating cardiovascular, cerebrovascular and other vascular disease patients” (priority 2006, published 2007):

Assay: Clinical treatment of high risk vascular patients: cholesterol panel (LDL, HDL, triglycerides)
Type: in vivo
Conditions: for LDL lowering effects on adding adjunct: adjunct added to statin composition, Niacin 500 mg, ezetimibe 10 mg
Experimental: The protocol of the instant invention was developed for patients that are high risk for a life and/or limb threatening vascular event (MI, CVA, limb/part of limb loss, Aortic dissection/rupture, Renal infarction, etc.) such as DM type I and/or II, CAD, PVD, post MI, post CVA, Hypertriglyceridemia, Hypercholesterolemia, AAA, etc.
It is generally acknowledged that a goal for a DM/CAD patient is to have a LDL cholesterol level less than 70 mg/dL (National Cholesterol Education Program Interim Report Guidelines).
Generally, a patient should start with a low dose of one statin, the dose should then be titrated up to half a maximal dose (titrate means to start a patient at the lowest dose and increase the dose monthly based on having a patient that is less than 3× normal levels for the LFTs, the LDL cholesterol level is not to goal, and there is no positive change in signs, symptoms or studies to evaluate vascular function per disease state). At that point, the patient should be evaluated to see if the LDL cholesterol level is near the goal. If the patient is near the goal, adjuncts should be given to see if the LDL cholesterol level can be further lowered. If the patient is not near the LDL cholesterol goal after titration up to half a maximal dose, the dose of the initial statin should be reduced and a low dose second statin from the other group should be added to the regimen (i.e., if the initial statin is a hydrophilic statin, the second statin should be a lipophilic statin; and vice versa). The second statin level should be titrated up to a half maximal dose if upon taking the statin from the other group (i.e., the second statin), the LDL cholesterol level goal is still not attained. If one is near or at the LDL cholesterol level goal before or after titration of the second statin, the adjuncts can be added to further reduce the LDL cholesterol level.

Row | SMILES | LDL lowering effects on adding adjunct | HDL up (niacin 500 mg a day with the composition of statins) | boost to the HDL levels (niacin 500 mg to 750 mg a day, adult, with two-statin composition)
1 | O=C1[C@H](CC[C@H](O)c2ccc(F)cc2)[C@@H](c2ccc(O)cc2)N1c1ccc(F)cc1 [ezetimibe] | amplified | – | –
2 | O=C(O)c1cccnc1 [niacin] | amplified | at least 10% | ≥ 10%
